Results as given in US12691101B2, “Compound and method for preventing or treating of respiratory diseases comprising the same as an active ingredient” (YONSEI UNIVERSITY, UNIVERSITY - INDUSTRY FOUNDATION (UIF), priority 2019, dated 2026).

Experiments:
[1] = system: AN01, CFTR and ENaC ion channel activity; experiment: Short circuit current in HNE cells; format: cell-based, human; settings: long-term treatment (48 hours)
Experimental: (A) Representative tracing of intracellular pH of treated (grey line) and IL-4 (10 ng/ml) treated HNE cells. Pendrin was inhibited by F56 ([…]). (B) The mRNA expression level of pendrin was determined at the indicated time after treatment of F56 ([…]) by real-time quantitative PCR in IL-4-treated HBE cells (mean±S.E., n=3). (C) The Cl^−/HCO3^− exchange activity was measured in IL-4-treated HBE cells. F56 was pretreated for 5 minutes. (D, E) Short circuit current record of HNE cells. Representative tracing showing the effect of F56 on the ENaC, CFTR and CaCC channel activity. After exposing to F56 ([…]) for 48 hours, in presence or absence of IL-4, the channel activity was measured. Amiloride (100 μM), forskolin (20 μM, CFTRinh-172 (10 μM) and ATP (100 μM) were added to the apical bath. (F) The AN01, CFTR and ENaC mRNA expression level was determined at the indicated time after treatment of F56 ([…]) by real-time quantitative PCR in IL-4-treated HNE cells (mean±S.E., n=5) * P<0.05, ** P<0.01, *** P<0.001.
Snapwell inserts containing the primary culture of AN01- and CFTR-expressing FRT and human nasal cavity epithelium (HNE) cells were equipped on Ussing chamber (Physiologic Instruments, San Diego, CA, USA). […] Using Labchart Pro 7 (AD Instruments), data were recorded and analyzed. […]

[2] = system: LPS-induced acute lung injury mice; experiment: LPS-induced ALI in mouse model; format: in vivo
Experimental: Mice were slightly anesthetized by isoflurane inhalation (Abbott Laboratory), and were maintained in a supine position with the head raised. LPS (Escherichia coli, 0111: B4, Sigma) (10 mg/kg) in 50 μL PBS was administered by intranasal (i.n.) inhalation. As the control group, 50 μL sterile PBS was intranasally provided. With the aid of a microsyringe from Hamilton, the administration solution was gradually released into the nostrils. In case of the pretreatment model, F56 (10 mg/kg) in 50 μL DMSO was intraperitoneally (i.p) administered before 1 hour of LPS inhalation. In case of the post-treatment model, two doses of F56 were administered at 6 hours and 12 hours after LPS inhalation. The mice of the pretreatment group were euthanized and in 48 hours after LPS inhalation, the lung was harvested. In the post-treatment model, euthanasia and sample collection occurred 24 hours after LPS administration. For SCN^− experiment, after F56 treatment, […]
All mice were euthanized with fetal excessive amount of ketamine and xylazine. BALF was obtained by tracheal cannula using 1 mL sterile saline solution. BALF was centrifuged (4° C., 3000 rpm, 10 minutes) and the supernatant was stored at −80° C. for an additional analysis. The cell pellet was recomposed in 100 μL PBS, and used for the number of cells and cytospin sample. The total number of cells of each sample was determined using a hemocytometer (Marienfield), according to the manufacturer's protocol. Each sample in a 90 μL split amount was transferred to a slide chamber, and then the slide was inserted into the cytospin with outward facing. The slide was centrifuged at 800 rpm for 5 minutes, and then removed from the cell centrifuge, and dried before staining. The cytospin was prepared with a cell centrifuge (Shandon Cytospin 4 cytocentrifuge, Thermo Scientific, Waltham, MA, USA) and stained with Diff-Quik Stain Set (Dade Behring, Newark, DE, USA) to evaluate inflammation. The protein concentration of BAL supernatant was measured using BCA analysis (Thermo Fischer Scientific). 2 microliters of each sample and 198 μL of a working reagent were pipetted in a microplate well and completely mixed in a plate shaker for […]. After culturing at 37° C. for 30 minutes, the plate was cooled and the absorbance was read at 562 nm in a spectrophotometer.
The right lung was isolated and the pulmonary vasculature structure was flushed with saline solution under low pressure and stored at −80° C. before protein extraction. The left lung was inflated via tracheostomy with low-meting agarose (4%) in PBS at 25 cm H2O pressure until the pleural margin was sharpened. Then, the lung was excised and fixed overnight in 10% formaldehyde in PBS and embedded in paraffin for 5 μm sections. The left lung section was stained with H&E and subjectively evaluated with an optical microscope. Histopathology was reviewed in a blind method by two qualified researchers. Five easily identifiable pathological processes were scored using the weighted scale presented in the official ATS workshop report. Lung sections were processed using anti-rabbit SLC26A4 (ab98091, abcam) antibody for immunohistochemistry.
In the lung lysates, the level of macrophage inflammatory protein (MIP-2), interleukin-1β (IL-1β […] and tumor necrosis factor α (TNF-α) was measured using an ELISA kit (Millipore), according to the manufacturer's instructions.
The lung tissue was harvested and dissolved in a homogenization buffer (PRO-PREP™ extraction solution, iNtRON Biotechnology). The sample was centrifuged at 4° C. for 30 minutes at 13000 g. The supernatant protein concentration was determined by BCA analysis (Thermo Fisher Scientific). The same amount of protein was separated by SDS/PAGE and transferred to a nitrocellulose membrane. […]

HNE cells = experiment: ASL and fluid meniscus volume measurement in HNE cells; format: cell-based, human
Experimental: The total volume of ASL and fluid meniscus, which is fluid with the cell culture insert wall, was measured by fluid absorption through filter paper. Whatman filter paper (10 mm diameter circle; GE Healthcare) was placed on the apical size of a 12-well transwell insert (Costar Co.) for 10 seconds. The absorption of the ASL and fluid meniscus was measured from the weight change of the filter paper. The weight of the filter paper was measured using an analysis scale (Sartorius BP61S; Sartorius AG, Gottingen, Germany).

[3] = post-treatment 10 mg/kg i.p. at 6 and 12 hours after LPS, 24 hours after LPS
[4] = pretreatment 10 mg/kg i.p. 1 hour before LPS, 48 hours after LPS, versus vehicle

For `CC(C)(C)c1ccc(C2=NC(=Cc3cccs3)C(=O)O2)cc1` [F56, 2-(4-(tert-butyl)phenyl)-4-(thiophen-2-ylmethylene)oxazol-5(4H)-one], the “ion channel activity of AN01, CFTR and ENaC” value [1] was “did not change”, the “level of pro-inflammatory cytokine in lung lysates (IL-1β, MIP-2, IL-6, TNF-α)” value ([2]; F56 pretreated versus vehicle (DMSO) after LPS) was “reduced” and the “Phospho-Iκ expression in lung lysates” value ([2]; F56 treatment before LPS) was “significantly reduced”. The BALF protein concentration [2, 3] was “considerably reduced”, the “BALF total cell number” value [2, 3] was “considerably reduced” and the lung injury score [2, 3] was “considerably reduced”. For the same compound, the “BAL protein concentration level” value [2, 4] was “reduced”, the “BAL total cell number” value [2, 4] was “reduced” and the lung injury score [2, 4] was “significantly reduced”. For the same compound, the “total volume of ASL and fluid meniscus” value (HNE cells; IL-4-treated HNE cells expressing a mutant pendrin) was “not changed” and the “total volume of ASL and fluid meniscus” value (HNE cells; IL-4 and IL-13-treated HNE cells expressing wild-type pendrin) was “hardly reduced”.
